The subject of experiment [1] is levodopa-induced dyskinesias. In words: levodopa-induced dyskinesias in MPTP-treated common marmosets. Type of experiment: in vivo, common marmosets (callithrix jacchus). The protocol: In order to investigate the efficacy of flibanserin in the treatment of levodopa-induced dyskinesias, experiments in a primate model of Parkinson's disease were performed. 6 common marmosets (callithrix jacchus) that developed chronical Parkinsonian motor deficits after MPTP administration were treated orally with levodopa plus carbidopa for 3 weeks according to the procedure described by Pearce et al. (1995). […] The severity of dyskinesias was measured by assessing the extent of choreic and dystonic movements in all parts of the body.

The test system of experiment [2] is cultured dopaminergic cells (from fetal rat mesencephalic tissue). The experiment is described as follows: survival of cultured dopaminergic cells exposed to 6-hydroxydopamine. Particulars: toxin (6-hydroxydopamine) co-administered with flibanserin. Format: cell-based. As to the method:
The reason of developing Parkinson's disease is a chronic process leading to a loss of dopaminergic neurons in a certain area of the EPS (substantia nigra). That process may be simulated in an experiment using cultured dopaminergic cells (from fetal rat mesencephalic tissue) which are exposed to a selective toxin (6-hydroxydompamine). The experiments were conducted in accordance with the method of Michel and Hefti, 1990. When the toxin was added to the cell culture medium the survival time of the neurons was markedly diminished. […] This indicates additionally neuroprotective properties of flibanserin. On the basis of these experiments it can be expected that patients treated with flibanserin will take benefit from said neuroprotective effect by slowing down or stopping the progression of the disease . Moreover, if flibanserin is given in early stages of the disease, a steady process leading to more severe stages may be postponed or even avoided. In particular, the occurrence of levodopa-induced dyskinesias can be prevented. In-so-far, a synergistic effect of the common administration of conventional anti-Parkinson drugs along with flibanserin in the treatment of Parkinson's disease is to be expected as increased “ON”-periods and decreased “OFF”-periods may be obtained.

In a further experiment the test system is tardive dyskinesias. The experiment is described as follows: persistent tardive dyskinesia model in baboons. Type of experiment: in vivo. Particulars: baboons with persistent tardive dyskinesia induced by a haloperidol derivative for 41 weeks. The source says:
The clinical appearance of levodopa-induced dyskinesias and of tardive dyskinesias are very often similar. […] dyskinesias are frequently observed in chronic schizophrenic patients after long-term treatment with neuroleptics. Recently an animal model of tardive dyskinesia was developed by Eyles at al. 2000. Persistent tardive dyskinesias were induced in 6 baboons by application of a derivative of haloperidol for 41 weeks until the animals developed abnormal orofacial signs that were consistent with tardive dyskinesia. These symptoms persisted during the drug-free period. The extent of dyskinesias was assessed by using a score derived fromt that applied in humans (Abnormal Involuntary Movement Scale). There was a significant improvement of dyskinesias by more than 50% after application of flibanserin. That means that flibanserin is also helpful in the treatment of tardive dyskinesia in chronic schizophrenic patients.

Experiment [3] deals with 5-HT inhibitory response (forskolin-stimulated cAMP accumulation). Particulars: rat cortex; read-out: reduced forskolin-stimulated cAMP accumulation (EC50); cited from earlier work. On the technique in general: Changes in cAMP serve as a functional read-out for many G protein-coupled receptors.
The next experiment addresses 5-HT-induced PI turnover. Particulars: rat cortex; read-out: antagonized 5-HT-induced PI turnover (Ki); cited from earlier work.
The subject of a further experiment is rat cortical firing rate. The conditions noted are these: in vivo; cited from earlier work.

SMILES strings stand for the structures.

For orientation: EC50 means the concentration giving half of the maximal effect. By Ki is commonly meant a dissociation constant, usually derived from enzyme kinetics or from competition with a known ligand.

In the case of `O=c1[nH]c2ccccc2n1CCN1CCN(c2cccc(C(F)(F)F)c2)CC1` [flibanserin, 2H-benzimidazol-2-one, 1,3-dihydro-1-(2-{4-[3-(trifluoromethyl)phenyl]-1-piperazinyl}ethyl)-], in experiment [1] (flibanserin in addition to levodopa), the “effect of levodopa on rigidity and bradykinesia” value is on record as “not weakened”. In addition, the “severity of dyskinesias (extent of choreic and dystonic movements)” value in experiment [1] (flibanserin in addition to levodopa, MPTP marmosets treated orally with levodopa plus carbidopa for 3 weeks) is “significantly reduced said dyskinesias”. Also, the “dyskinesia symptoms in monkeys with less severe dyskinesia” value in experiment [1] (some of the monkeys with less severe dyskinesia) is recorded as “symptoms disappeared entirely”. In experiment [2], the “concentrations at which normal survival times were reached” value fell in the range of 0.1 to 1 µM and the “survival time of neurons” value is listed as “increased in a concentration-dependent manner”. Further, the “improvement of dyskinesias (score derived from Abnormal Involuntary Movement Scale)” value in the experiment on tardive dyskinesias is on record as “more than 50%”. In experiment [3], the EC50 was 913 nM. Further, the inhibition constant Ki on 5-HT-induced PI turnover was 113 nM. The “inhibition of rat cortical firing rate” value in the experiment with rat cortical firing rate was “dose-dependently inhibited rat cortical firing rate”.

(Values after US8030314B2, “Use of 2h-benzimidazol-2-one, 1,3-dihydro-1-(2{4-[3-(trifluoromethyl)phenyl]-1-piperazinyl}ethyl)-and its physiologically acceptable acid addition salts” (priority 2001, dated 2011).)
